In PubChem BioAssay (NCI):
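Cultured in 96-well plates, cells were exposed to test compound for 48 hours across five concentrations. GI50 = concentration required for 50% inhibition of growth. TGI is the concentration that stops growth completely.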

Key:
Experiment in all cases: NCI-60 cell line screen, 48 h
HCT-116 colon = tested on: HCT-116 colon
SN12C renal = tested on: SN12C renal
U251 CNS = tested on: U251 CNS
OVCAR-8 ovarian = tested on: OVCAR-8 ovarian
SF-295 CNS = tested on: SF-295 CNS
HT29 colon = tested on: HT29 colon
MALME-3M melanoma = tested on: MALME-3M melanoma
HOP-62 NSCLC = tested on: HOP-62 NSCLC
MDA-MB-231 breast = tested on: MDA-MB-231 breast
NCI/ADR-RES ovarian = tested on: NCI/ADR-RES ovarian
ACHN renal = tested on: ACHN renal
OVCAR-4 ovarian = tested on: OVCAR-4 ovarian

Row | SMILES | TGI (HCT-116 colon) [µM] | TGI (SN12C renal) [µM] | TGI (U251 CNS) [µM] | TGI (OVCAR-8 ovarian) [µM] | TGI (SF-295 CNS) [µM] | TGI (HT29 colon) [µM] | TGI (MALME-3M melanoma) [µM] | TGI (HOP-62 NSCLC) [µM] | TGI (MDA-MB-231 breast) [µM] | TGI (NCI/ADR-RES ovarian) [µM] | TGI (ACHN renal) [µM] | TGI (OVCAR-4 ovarian) [µM] | GI50 (SN12C renal) [µM] | GI50 (OVCAR-8 ovarian) [µM] | GI50 (SF-295 CNS) [µM] | GI50 (HT29 colon) [µM] | GI50 (OVCAR-4 ovarian) [µM] | GI50 (ACHN renal) [µM]
1 | O=C(O)c1ccc(Nc2nc3cc(C(F)(F)F)ccc3nc2-c2ccccc2)cc1 | 84.5 | 97.6 | 34.2 | > 100 | 27.9 | 28.2 | > 100 | 43.1 | > 100 | 70.2 | > 100 |  |  |  |  |  |  | 
2 | O=[N+]([O-])c1sc2ccc(Cl)cc2c1Nc1ccc(Cl)cc1 |  | > 100 | > 100 | > 100 | > 100 | > 100 | > 100 | > 100 | > 100 | > 100 | > 100 | > 100 |  |  |  |  |  | 
3 | O=C(CN(c1ccc(S(=O)(=O)O)cc1)c1ccc(S(=O)(=O)O)cc1)Nn1cnc2ccc(S(=O)(=O)N(c3ccc(S(=O)(=O)O)cc3)c3ccc(S(=O)(=O)O)cc3)cc2c1=O | > 100 | > 100 | > 100 | > 100 | > 100 | > 100 | > 100 | > 100 | > 100 | > 100 | > 100 | > 100 |  |  |  |  |  | 
4 | CCN(CC)CCNc1ccc2nnn3c4ccccc4c(=O)c1c23 | 35.2 | 33.4 | 9.22 | 18.6 | 15.3 | 14.2 | 16.1 | 15.8 |  |  | > 100 | 13.7 |  |  |  |  |  | 
5 | O=C(O)CCC(NC(=O)c1ccc(CNc2nc3ccccc3nc2C(=O)O)cc1)C(=O)O (stereo not given) | > 100 | > 100 | > 100 | > 100 | > 100 | > 100 | > 100 | > 100 | > 100 | > 100 | > 100 | > 100 |  |  |  |  |  | 
6 | COC(=O)[C@@H]1Cc2cc(O)c(O)cc2C2(CCN(C)CC2)O1 | > 10 | > 10 | > 10 | > 10 | > 10 | > 10 | > 10 | > 10 | > 10 | > 10 | > 10 | > 10 |  |  |  |  |  | 
7 | Nc1ccccc1N=Nc1c(S(=O)(=O)O)cc2cc(S(=O)(=O)O)cc(O)c2c1O | > 100 | > 100 | > 100 | > 100 | > 100 | > 100 | > 100 | > 100 | > 100 | > 100 | > 100 | > 100 |  |  |  |  |  | 
8 | CCN(CC)C(=S)SS(=O)(=O)c1ccccc1[N+](=O)[O-] | > 59.1 | 56.6 | > 56.2 | > 56.9 | > 100 | 50.4 | 22.2 | > 65.8 | 37.3 | 97.5 | > 78.4 | > 83.3 |  |  |  |  |  | 
9 | CC(O[Si](c1ccccc1)(c1ccccc1)C(C)(C)C)[C@H](NC(=O)OC(C)(C)C)C(=O)O (stereo not given in full) | > 100 |  | > 100 | > 100 | > 100 | > 100 | > 100 | > 100 |  | > 100 | > 100 | > 100 |  |  |  |  |  | 
10 | CCOC(=O)NC(=S)c1ccc(O)c2ccccc12 | > 100 |  | > 100 | > 100 | > 100 | > 100 | > 100 | > 100 |  | > 100 | > 100 | > 100 |  |  |  |  |  | 
11 | COc1ccc(-c2nc(-c3cnccn3)n(COCCO)n2)cc1 | > 100 | > 100 | > 100 | > 100 | > 100 | > 100 |  | > 100 | > 100 | > 100 |  | > 100 |  |  |  |  |  | 
12 | O=C1CN(c2ccc(Cl)cc2)C(=O)CN1NCNN1CC(=O)N(c2ccc(Cl)cc2)CC1=O | > 100 | > 100 | > 100 | > 100 | > 100 | > 100 | > 100 | > 100 |  |  | > 100 | > 100 |  |  |  |  |  | 
13 | C=C1CC(COc2ccc3c(C)cc(=O)oc3c2)(c2ccccc2)OC1=O (stereo not given) | 2.73 | 21.1 | 23.6 | 5.57 | 23 | 2.96 | 1.9 | 31 | 9.07 | 16.6 | 7.3 |  |  |  |  |  |  | 
14 | COc1ccc(/C=C2/CCS(=O)(=O)c3ccc(C)cc3C2=O)cc1OC | 21.8 | 73.9 | 42 | 48.1 | 36 | 27.6 |  | > 100 | 39.1 | 46.5 | 27.4 | 66.9 |  |  |  |  |  | 
15 | Cc1ccc(C2CC(c3cccc(Nc4ccncc4)c3)=NN2c2ccccc2)cc1 (stereo not given) |  | 3.19 |  | 4.85 | 3.17 | 5.63 |  |  |  |  | 3.05 | 3.12 | 1.69 | 2.19 | 1.76 | 2.23 | 1.69 | 1.69
16 | O=C1C(Cl)C(c2cc3cc(Br)ccc3nc2Cl)N1c1c(Cl)cccc1Cl (stereo not given) | > 25 | > 25 |  | > 25 | > 25 | > 25 | > 25 | > 25 | > 25 | > 25 | > 25 | 11.4 |  |  |  |  |  | 
17 | N#CCCN(CCC#N)c1ccc(C(N=Nc2ccc(Cl)cc2)=Nc2ccc(F)cc2)cc1 | > 100 | > 100 | > 100 | > 100 | > 100 | > 100 |  | > 100 | > 100 | > 100 | > 100 | > 100 |  |  |  |  |  | 
18 | CC(C)(C)NC(=O)C12C3C4C1C1C2C3C41C(=O)NC(C)(C)C (stereo not given) | > 100 | > 100 | > 100 | > 100 | > 100 | > 100 |  | > 100 | > 100 | > 100 | > 100 | > 100 |  |  |  |  |  | 
19 | COC(=O)c1c2c(cc3c1CC1(Cc4cc5c(cc4C1)CCC5)C3)CCC2 | > 100 |  | > 100 | > 100 | > 100 | > 100 | > 100 | > 100 | > 100 | > 100 | > 100 | > 100 |  |  |  |  |  | 
